In assay [1] the test system is P. aeruginosa MMX 1609. As to the kind of experiment: Susceptibility testing (MIC at 35° C.). The class given is cell-based. As to conditions: Pseudomonas aeruginosa, MMX1609. The method, then: (§1) From a previous susceptibility testing experiment, the liposomal test batches and control tobramycin MIC values are shown in Table 5 below. The time-kill test is conducted using the test agents shown in bold print in Table 5: [table]

Assay [2] has as its system P. aeruginosa ATCC 27853. As to the kind of experiment: Susceptibility testing (MIC at 35° C.). As to conditions: Pseudomonas aeruginosa, ATCC27853. Type of assay: cell-based. The protocol:
as §1

The subject of assay [3] is B. cepacia ATCC 25608. As to the kind of experiment: Susceptibility testing (MIC at 35° C.). The class given is cell-based. As to conditions: Burkholderia cepacia, ATCC25608. The method, then:
as §1

The test system of assay [4] is P. aeruginosa MMX 1609. As to conditions: at 35° C.; cited from earlier work.
The subject of assay [5] is B. cepacia ATCC 25608. As to conditions: at 35° C.; cited from earlier work.
Assay [6] deals with P. aeruginosa ATCC 27853. As to conditions: at 35° C.; cited from earlier work.

The structures appear in SMILES notation. In brackets after ≈: the same amount, converted by molar mass.

The text below walks through data of US20110014273A1, “Method of Treating BCC” (priority 2009, published 2011).

In general, MIC refers to the lowest concentration that inhibits growth of the organism. Read a high MIC as a need for much substance.

In the case of `NC[C@H]1O[C@H](O[C@H]2[C@H](O)[C@@H](O[C@H]3O[C@H](CO)[C@@H](O)[C@H](N)[C@H]3O)[C@H](N)C[C@@H]2N)[C@H](N)C[C@@H]1O` [Free tobramycin (Sigma), tobramycin], the results for the MIC in assay [1], in assay [2] and in assay [3] were 0.5 µg/mL (≈ 1.07 µM), 0.5 µg/mL (≈ 1.07 µM) and above 64 µg/mL, respectively.
On to `NC[C@H]1O[C@H](O[C@H]2[C@H](O)[C@@H](O[C@H]3O[C@H](CO)[C@@H](O)[C@H](N)[C@H]3O)[C@H](N)C[C@@H]2N)[C@H](N)C[C@@H]1O` [tobramycin], for which the “MIC, CLSI QC range” value is “(0.25-1) μg/mL” in assay [4], “(0.12-1) μg/mL” in assay [5] and 0.25 to 1 µg/mL in assay [6].
